Common to all, as to format: cell-based
Assay [1] deals with T1, GLP-1R (Homo sapiens, UniProt P43220). The assay is described as follows: PathHunter β-arrestin assay. The procedure, abridged: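 β-Arrestin recruitment measured by PathHunter enzyme-fragment luminescence, read after 3 h dark incubation at room temperature with detection solution. Beforehand, agonist in a 22-point 2-fold series was applied in duplicate for 90 min at 37 °C to 5,000 cells/well in BSA-containing (0.2%) medium.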

For assay [2], the target named is T1, GLP-1R. The assay is described as follows: HitHunter cAMP assay (GLP-1R). The note with it: cAMP; for Emax: read-out: (Emax) GLP-1R. The procedure, abridged:
(§1)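 cAMP accumulation read by luminescent HitHunter immunocompetition after 30 min room-temperature agonist stimulation. Agonists tested as 22-point twofold dilutions, in duplicate, on 10,000 cells/well in HBSS containing 625 μM IBMX, 10 mM HEPES and 0.2% BSA.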
A general note: Cyclic AMP is a second messenger, typically raised through Gs and lowered through Gi signalling.

In assay [3] the target is T2, GIP-R (Homo sapiens, UniProt P48546).
T2 sequence (P48546 22-466): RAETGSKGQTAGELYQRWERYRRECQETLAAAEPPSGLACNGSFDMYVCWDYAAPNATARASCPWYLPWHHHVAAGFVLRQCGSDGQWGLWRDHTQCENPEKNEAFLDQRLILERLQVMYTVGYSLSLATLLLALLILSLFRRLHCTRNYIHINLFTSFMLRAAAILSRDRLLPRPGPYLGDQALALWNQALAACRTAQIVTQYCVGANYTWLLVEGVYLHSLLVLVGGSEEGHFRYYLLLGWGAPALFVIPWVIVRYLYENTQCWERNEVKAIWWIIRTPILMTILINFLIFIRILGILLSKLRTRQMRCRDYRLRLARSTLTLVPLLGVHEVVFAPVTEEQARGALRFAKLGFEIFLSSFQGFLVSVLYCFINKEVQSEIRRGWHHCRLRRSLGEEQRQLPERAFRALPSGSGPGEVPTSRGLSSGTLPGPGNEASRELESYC
The assay is described as follows: HitHunter cAMP assay (GIP-R). The note with it: cAMP; for Emax: read-out: (Emax) GIP-R. The procedure, abridged: as §1

Where [4] appears, read: PathHunter β-arrestin assay, read-out: β-arrestin activity EC50.
Setting [5] is: Table 3A, read-out: EC50 GLP-1R/nM.
Where [6] appears, read: Table 3A, read-out: EC50 GIP-R/nM.

pEC50: −log10 of the molar value. Like-named read-outs stand apart in the source and are kept apart here. Numbered stars: 1 amine (or outer) side, 2 acyl side, 3 side chain; on linkers, the order of the positions; unused ones are H or OH. Square brackets hold non-standard residues; d marks the D form. Side chains are listed from the residue outwards. Peptide text beside a SMILES is read from it. * marks the point of attachment. Ala(1H-tetrazol-5-yl) = N[C@@H](Cc1nnn[nH]1)C(=O)O; γGlu = O=C(O)[C@H](CCC(=O)[*:2])N[*:1]; Palmitoyl = CCCCCCCCCCCCCCCC(=O)*; X6 = O=C(CSCC(=O)*)NCCN1CCCCC1=O; Aib = CC(C)(N)C(=O)O

T1 sequence (P43220 24-463): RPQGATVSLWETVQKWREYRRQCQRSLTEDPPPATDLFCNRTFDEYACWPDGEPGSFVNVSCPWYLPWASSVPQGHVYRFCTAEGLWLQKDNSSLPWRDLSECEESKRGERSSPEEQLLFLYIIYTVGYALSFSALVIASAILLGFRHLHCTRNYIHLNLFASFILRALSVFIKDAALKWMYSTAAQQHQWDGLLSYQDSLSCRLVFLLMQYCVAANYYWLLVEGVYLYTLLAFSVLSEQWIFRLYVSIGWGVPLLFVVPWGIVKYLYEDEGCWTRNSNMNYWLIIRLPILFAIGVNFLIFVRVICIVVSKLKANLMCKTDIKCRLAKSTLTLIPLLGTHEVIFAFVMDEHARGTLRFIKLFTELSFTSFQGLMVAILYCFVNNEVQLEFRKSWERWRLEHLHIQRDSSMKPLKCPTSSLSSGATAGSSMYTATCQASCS

By pEC50 is commonly meant −log10 of the EC50, conventionally taken in molar units. For orientation: Emax means the size of the effect at its maximum, as opposed to the concentration needed. In the case of `CCCCCCCCCCCCCCCC(=O)N[C@@H](CCC(=O)NCCCC[C@H](NC(=O)[C@H](CO)NC(=O)[C@@H]1CCCN1C(=O)[C@@H]1CCCN1C(=O)[C@@H]1CCCN1C(=O)[C@H](C)NC(=O)CNC(=O)[C@H](CO)NC(=O)[C@H](CO)NC(=O)[C@@H]1CCCN1C(=O)CNC(=O)CNC(=O)[C@H](C)NC(=O)[C@H](CC(C)C)NC(=O)[C@H](CC(C)C)NC(=O)[C@H](Cc1c[nH]c2ccccc12)NC(=O)[C@H](CC(N)=O)NC(=O)[C@@H](NC(=O)[C@H](Cc1ccccc1)NC(=O)[C@H](CCC(=O)O)NC(=O)C(C)(C)NC(=O)[C@H](C)NC(=O)[C@H](C)NC(=O)[C@H](CCC(N)=O)NC(=O)[C@H](CCCCN)NC(=O)[C@H](CC(=O)O)NC(=O)[C@H](CC(C)C)NC(=O)[C@H](Cc1ccc(O)cc1)NC(=O)[C@@H](NC(=O)[C@H](CO)NC(=O)[C@H](Cc1ccc(O)cc1)NC(=O)[C@H](CC(=O)O)NC(=O)[C@H](CO)NC(=O)[C@@H](NC(=O)[C@H](Cc1ccccc1)NC(=O)[C@@H](NC(=O)CNC(=O)[C@H](Cc1nn[nH]n1)NC(=O)CSCC(=O)NCCN1CCCCC1=O)[C@@H](C)O)[C@@H](C)O)[C@@H](C)CC)C(C)C)C(N)=O)C(=O)O` [Compound 223] (X6-[Ala(1H-tetrazol-5-yl)]GTFTSDYSIYLDKQAA[Aib]EFVNWLLAGGPSSGAPPPSK([γGlu-Palmitoyl])-NH2), the pEC50 in assay [1] (setting [4]) was 6.00 to 8.00. Further, the Emax amounted to 101% in assay [2] (Table 3A) and 91% in assay [3] (Table 3A). Further, the EC50 in assay [2] (setting [5]) is < 0.1 nM; in assay [3] (setting [6]), 0.1 to 1 nM.
For `CCCCCCCCCCCCCCCC(=O)N[C@@H](CCC(=O)NCCCC[C@H](NC(=O)[C@H](CO)NC(=O)[C@@H]1CCCN1C(=O)[C@@H]1CCCN1C(=O)[C@@H]1CCCN1C(=O)[C@H](C)NC(=O)CNC(=O)[C@H](CO)NC(=O)[C@H](CO)NC(=O)[C@@H]1CCCN1C(=O)CNC(=O)CNC(=O)[C@H](C)NC(=O)[C@H](CC(C)C)NC(=O)[C@H](CC(C)C)NC(=O)[C@H](Cc1c[nH]c2ccccc12)NC(=O)[C@H](CC(N)=O)NC(=O)[C@@H](NC(=O)[C@H](Cc1ccccc1)NC(=O)[C@H](CCC(=O)O)NC(=O)C(C)(C)NC(=O)[C@H](C)NC(=O)[C@H](C)NC(=O)[C@H](CCC(N)=O)NC(=O)[C@H](CCCCN)NC(=O)[C@H](CC(=O)O)NC(=O)[C@H](CC(C)C)NC(=O)[C@H](Cc1ccc(O)cc1)NC(=O)[C@@H](NC(=O)[C@H](CO)NC(=O)[C@H](Cc1ccc(O)cc1)NC(=O)[C@H](CC(=O)O)NC(=O)[C@H](CO)NC(=O)[C@@H](NC(=O)[C@H](Cc1ccccc1)NC(=O)[C@@H](NC(=O)CNC(=O)[C@H](CCC(=O)O)NC(=O)CC(C)(C)C(=O)NCCN1CCCCC1=O)[C@@H](C)O)[C@@H](C)O)[C@@H](C)CC)C(C)C)C(N)=O)C(=O)O` [Compound 204], the pEC50 in assay [1] (setting [4]) was 6.00 to 7.70. In addition, the EC50 in assay [2] (setting [5]) is < 0.1 nM; in assay [3] (setting [6]), 10 to 100 nM. For the same molecule, the maximal effect (Emax) in assay [3] (Table 3A) was found to be 98%.
As to `CC[C@H](C)[C@H](NC(=O)[C@H](CO)NC(=O)[C@H](Cc1ccc(O)cc1)NC(=O)[C@H](CC(=O)O)NC(=O)[C@H](CO)NC(=O)[C@@H](NC(=O)[C@H](Cc1ccccc1)NC(=O)[C@@H](NC(=O)CNC(=O)[C@H](CCC(=O)O)NC(=O)CSCC(=O)NCCN1C(=O)c2ccncc2C1=O)[C@@H](C)O)[C@@H](C)O)C(=O)N[C@@H](Cc1ccc(O)cc1)C(=O)N[C@@H](CC(C)C)C(=O)N[C@@H](CC(=O)O)C(=O)N[C@@H](CCCCN)C(=O)N[C@@H](CCC(N)=O)C(=O)N[C@@H](C)C(=O)N[C@@H](C)C(=O)NC(C)(C)C(=O)N[C@@H](CCC(=O)O)C(=O)N[C@@H](Cc1ccccc1)C(=O)N[C@H](C(=O)N[C@@H](CC(N)=O)C(=O)N[C@@H](Cc1c[nH]c2ccccc12)C(=O)N[C@@H](CC(C)C)C(=O)N[C@@H](CC(C)C)C(=O)N[C@@H](C)C(=O)NCC(=O)NCC(=O)N1CCC[C@H]1C(=O)N[C@@H](CO)C(=O)N[C@@H](CO)C(=O)NCC(=O)N[C@@H](C)C(=O)N1CCC[C@H]1C(=O)N1CCC[C@H]1C(=O)N1CCC[C@H]1C(=O)N[C@@H](CO)C(=O)N[C@@H](CCCCN)C(N)=O)C(C)C` [Compound 157], in assay [1], the negative-log EC50 (pEC50) was < 6.00. Moreover, the Emax in assay [2] (Table 3) was in the range of 93 to 95%; in assay [2] (Table 3A) it was 93 to 95%; in assay [3] (Table 3), 103 to 105%; in assay [3] (Table 3A), 103 to 105%. The EC50 in assay [2] (read-out: EC50 GLP-1R/nM, Table 3) is 1 to 100 nM; in assay [2] (read-out: EC50 GLP-1R/nM, Table 3A), 1 to 100 nM; in assay [3] (read-out: EC50 GIP-R/nM, Table 3) it was 0.1 to 10 nM; in assay [3] (read-out: EC50 GIP-R/nM, Table 3A) it was 0.1 to 10 nM.
For the molecule `CCCCCCCCCCCCCCCC(=O)N[C@@H](CCC(=O)NCCCC[C@H](NC(=O)[C@H](CO)NC(=O)[C@@H]1CCCN1C(=O)[C@@H]1CCCN1C(=O)[C@@H]1CCCN1C(=O)[C@H](C)NC(=O)CNC(=O)[C@H](CO)NC(=O)[C@H](CO)NC(=O)[C@@H]1CCCN1C(=O)CNC(=O)CNC(=O)[C@H](C)NC(=O)[C@H](CC(C)C)NC(=O)[C@H](CC(C)C)NC(=O)[C@H](Cc1c[nH]c2ccccc12)NC(=O)[C@H](CC(N)=O)NC(=O)[C@@H](NC(=O)[C@H](Cc1ccccc1)NC(=O)[C@H](CCC(=O)O)NC(=O)C(C)(C)NC(=O)[C@H](C)NC(=O)[C@H](C)NC(=O)[C@H](CCC(N)=O)NC(=O)[C@H](CCCCN)NC(=O)[C@H](CC(=O)O)NC(=O)[C@H](CC(C)C)NC(=O)[C@H](Cc1ccc(O)cc1)NC(=O)[C@@H](NC(=O)[C@H](CO)NC(=O)[C@H](Cc1ccc(O)cc1)NC(=O)[C@H](CC(=O)O)NC(=O)[C@H](CO)NC(=O)[C@@H](NC(=O)[C@H](Cc1ccccc1)NC(=O)[C@@H](NC(=O)CNC(=O)[C@H](CCC(=O)O)NC(=O)CCC(=O)NCCN1CCCCC1=O)[C@@H](C)O)[C@@H](C)O)[C@@H](C)CC)C(C)C)C(N)=O)C(=O)O` [Compound 26], the negative logarithm of the EC50 (pEC50) in assay [1] (setting [4]) is < 6.00. In addition, the Emax was 95% in assay [2] (Table 3), 95% in assay [2] (Table 3A), 64% in assay [3] (Table 3) and 64% in assay [3] (Table 3A). Moreover, the EC50 in assay [2] (Table 3, read-out: EC50 GLP-1R/nM) was in the range of 0.1 to 1 nM; in assay [2] (setting [5]), 0.1 to 1 nM; in assay [3] (Table 3, read-out: EC50 GIP-R/nM) it was 1 to 10 nM; in assay [3] (setting [6]), 1 to 10 nM.
For the molecule `CCCCCCCCCCCCCCCC(=O)N[C@@H](CCC(=O)NCCCC[C@H](NC(=O)[C@H](CO)NC(=O)[C@@H]1CCCN1C(=O)[C@@H]1CCCN1C(=O)[C@@H]1CCCN1C(=O)[C@H](C)NC(=O)CNC(=O)[C@H](CO)NC(=O)[C@H](CO)NC(=O)[C@@H]1CCCN1C(=O)CNC(=O)CNC(=O)[C@H](C)NC(=O)[C@H](CC(C)C)NC(=O)[C@H](CC(C)C)NC(=O)[C@H](Cc1c[nH]c2ccccc12)NC(=O)[C@H](CC(N)=O)NC(=O)[C@@H](NC(=O)[C@H](Cc1ccccc1)NC(=O)[C@H](CCC(=O)O)NC(=O)C(C)(C)NC(=O)[C@H](C)NC(=O)[C@H](C)NC(=O)[C@H](CCC(N)=O)NC(=O)[C@H](CCCCN)NC(=O)[C@H](CC(=O)O)NC(=O)[C@H](CC(C)C)NC(=O)[C@H](Cc1ccc(O)cc1)NC(=O)[C@@H](NC(=O)[C@H](CO)NC(=O)[C@H](Cc1ccc(O)cc1)NC(=O)[C@H](CC(=O)O)NC(=O)[C@H](CO)NC(=O)[C@@H](NC(=O)[C@H](Cc1ccccc1)NC(=O)[C@@H](NC(=O)CNC(=O)[C@H](CCC(=O)O)NC(=O)CSCC(=O)NCCn1ccc(C)cc1=O)[C@@H](C)O)[C@@H](C)O)[C@@H](C)CC)C(C)C)C(N)=O)C(=O)O` [Compound 285], in assay [1], the pEC50 is < 6.00. Also, the EC50 in assay [2] (EC50 GLP-1R/nM, Table 3A) is < 0.1 nM; in assay [3] (EC50 GIP-R/nM, Table 3A), 0.1 to 1 nM. Besides, the figures for the Emax in assay [2] (Table 3A) and in assay [3] (Table 3A) were 99% and 97%, respectively.

The values are drawn from patent US20260176320A1, “MODULATORS OF G-PROTEIN COUPLED RECEPTORS” (priority 2018, published 2026).
